In patent US8846746B2, “Pyrazole compound and pharmaceutical use thereof” (Japan Tobacco Inc., priority 2011, dated 2014) one finds IC50 data, which are given here for 16 molecules.

Structures are written as SMILES. pIC50: −log10 of the molar value.

As a reminder, the pIC50 is the IC50 on a negative log10 scale, so that one unit is a factor of ten. Read a high pIC50 as a small IC50.

For the assay, the target named is human SGLT1 (Homo sapiens (Human), UniProt P13866). In words: SGLT1 inhibitory activity: 14C-AMG uptake into CHO-K1 cell line stably expressing human SGLT1. Format: cell-based. Conditions: 14C-AMG uptake, CHO-K1 cells stably expressing human SGLT1. The method, boiled down: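 CHO-K1 cells stably expressing human SGLT1 were pre-incubated 20 min in Na(−) buffer (pH 7.4). Test compound in Na(+) buffer with BSA was added with ¹⁴C-AMG (8 kBq) plus unlabelled AMG (2 mM in the added solution) for 1 h at 37 °C.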
human SGLT1, sequence (P13866 whole entry): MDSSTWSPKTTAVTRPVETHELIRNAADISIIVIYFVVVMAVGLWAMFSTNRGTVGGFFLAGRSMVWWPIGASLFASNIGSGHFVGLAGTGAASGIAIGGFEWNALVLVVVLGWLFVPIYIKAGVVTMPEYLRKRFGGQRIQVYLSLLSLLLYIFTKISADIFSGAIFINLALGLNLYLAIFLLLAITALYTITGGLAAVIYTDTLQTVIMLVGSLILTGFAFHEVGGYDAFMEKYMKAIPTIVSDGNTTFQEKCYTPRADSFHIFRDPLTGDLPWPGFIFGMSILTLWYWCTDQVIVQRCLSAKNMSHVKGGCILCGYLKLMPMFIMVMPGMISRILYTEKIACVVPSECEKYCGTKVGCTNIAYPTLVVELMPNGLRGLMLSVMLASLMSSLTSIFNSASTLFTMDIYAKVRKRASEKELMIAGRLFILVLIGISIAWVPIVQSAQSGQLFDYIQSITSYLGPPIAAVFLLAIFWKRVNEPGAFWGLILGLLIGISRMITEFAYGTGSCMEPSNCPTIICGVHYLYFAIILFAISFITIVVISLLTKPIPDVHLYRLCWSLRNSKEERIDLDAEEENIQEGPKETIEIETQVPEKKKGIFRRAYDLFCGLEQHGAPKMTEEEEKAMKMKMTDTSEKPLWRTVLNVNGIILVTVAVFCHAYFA
Consider `O=C1C[C@H](C(=O)Nc2cc(-c3cc(F)cc(COC(C(F)(F)F)C(F)(F)F)c3)n(-c3ccccc3)n2)CN1` [Example 585], for which the pIC50 is 7.89.

As to `O=C1C[C@H](C(=O)Nc2cc(-c3cc(Cl)cc(COCC(F)(F)F)c3)n(-c3ccccc3)n2)CN1` [Example 586], the pIC50 is 7.34. For `O=C1C[C@H](C(=O)Nc2cc(-c3cc(Cl)cc(COCC(F)(F)F)c3)n(-c3ccccc3F)n2)CN1` [Example 587] the value was 7.40. Then `O=C1C[C@H](C(=O)Nc2cc(-c3cc(Cl)cc(COCC(F)(F)F)c3)n(-c3cccc(F)c3)n2)CN1` [Example 588], with 7.40; and `O=C1C[C@H](C(=O)Nc2cc(-c3cc(Cl)cc(COCC(F)(F)F)c3)n(-c3ccc(F)cc3)n2)CN1` [Example 589], with 7.26; and `C[C@@H](OCc1cccc(-c2cc(NC(=O)[C@H]3CNC(=O)N3)nn2-c2ccc(Cl)cc2)c1)C(F)(F)F` [Example 590], with 7.89.

Consider `CC(C)(OCc1cc(Cl)cc(-c2cc(NC(=O)[C@H]3CNC(=O)N3)nn2-c2ccccc2)c1)C(F)(F)F` [Example 594], for which the pIC50 is 7.18.

The molecule `CC(C)(OCc1cc(F)cc(-c2cc(NC(=O)[C@@H]3CNC(=O)C3)nn2-c2ccc(F)cc2)c1)C(F)(F)F` [Example 595] gave a pIC50 of 8.00. Then `O=C1NC[C@H](C(=O)Nc2cc(-c3cc(F)cc(COCC(F)(F)F)c3)n(-c3ccc(Cl)cc3)n2)N1` [Example 596], with 7.46. For `C[C@@H](OCc1cc(Cl)cc(-c2cc(NC(=O)[C@H]3CNC(=O)N3)nn2-c2ccccc2)c1)C(F)(F)F` [Example 597] the value was 7.22; for `C[C@@H](OCc1cc(Cl)cc(-c2cc(NC(=O)[C@H]3CNC(=O)N3)nn2-c2ccc(F)cc2)c1)C(F)(F)F` [Example 598], 7.33. Then `CC(C)(OCc1cccc(-c2cc(NC(=O)[C@H]3CNC(=O)N3)nn2-c2ccc(Cl)cc2)c1)C(F)(F)F` [Example 599], with 7.57; and `CC(C)(OCc1cc(Cl)cc(-c2cc(NC(=O)[C@H]3CNC(=O)N3)nn2-c2ccc(F)cc2)c1)C(F)(F)F` [Example 600], with 7.39. `CC(C)(OCc1cc(F)cc(-c2cc(NC(=O)[C@H]3CNC(=O)N3)nn2-c2ccccc2)c1)C(F)(F)F` [Example 601]: the pIC50 is 7.51. For `CC(C)(OCc1cc(F)cc(-c2cc(NC(=O)[C@H]3CNC(=O)N3)nn2-c2ccc(F)cc2)c1)C(F)(F)F` [Example 602] the value was 7.55; for `CC(C)(OCc1cc(F)cc(-c2cc(NC(=O)[C@H]3CNC(=O)N3)nn2-c2ccc(Cl)cc2)c1)C(F)(F)F` [Example 603], 7.80.
